In ChEMBL document CHEMBL5696442, “Discovery of type II inhibitors of TGFβ-activated kinase 1 (TAK1) and mitogen-activated protein kinase kinase kinase kinase 2 (MAP4K2)” (J Med Chem, 2015):

Legend:
[1] = target: Serine/threonine-protein kinase MARK2 (Homo sapiens) (UniProt Q7KZI7); test: Inhibition of MARK2 Lys1 labeling site harbouring EVAVKIIDKTQLNSSSLQK in human Huh-7 cell lysate at 1 uM by KiNativ Profiling analysis relative to control; assay type: subcellular
[2] = target: Serine/threonine-protein kinase SIK1 (Homo sapiens) (UniProt P57059); test: Inhibition of SIK (unknown origin) at 10 uM by Ambit Kinomescan binding assay relative to control; values are per cent of control
[3] = target: MAP/microtubule affinity-regulating kinase 3 (Homo sapiens) (UniProt P27448); test: Inhibition of MARK3 K1 labeling site in human Huh-7 cells at 1 uM by KiNativ Profiling analysis relative to control; assay type: cell-based
[4] = target: T1, NUAK family SNF1-like kinase 1 (Homo sapiens) (UniProt O60285); test: Inhibition of ARK5 (unknown origin) at 1 uM by Ambit Kinomescan binding assay relative to control
T1 sequence (whole entry): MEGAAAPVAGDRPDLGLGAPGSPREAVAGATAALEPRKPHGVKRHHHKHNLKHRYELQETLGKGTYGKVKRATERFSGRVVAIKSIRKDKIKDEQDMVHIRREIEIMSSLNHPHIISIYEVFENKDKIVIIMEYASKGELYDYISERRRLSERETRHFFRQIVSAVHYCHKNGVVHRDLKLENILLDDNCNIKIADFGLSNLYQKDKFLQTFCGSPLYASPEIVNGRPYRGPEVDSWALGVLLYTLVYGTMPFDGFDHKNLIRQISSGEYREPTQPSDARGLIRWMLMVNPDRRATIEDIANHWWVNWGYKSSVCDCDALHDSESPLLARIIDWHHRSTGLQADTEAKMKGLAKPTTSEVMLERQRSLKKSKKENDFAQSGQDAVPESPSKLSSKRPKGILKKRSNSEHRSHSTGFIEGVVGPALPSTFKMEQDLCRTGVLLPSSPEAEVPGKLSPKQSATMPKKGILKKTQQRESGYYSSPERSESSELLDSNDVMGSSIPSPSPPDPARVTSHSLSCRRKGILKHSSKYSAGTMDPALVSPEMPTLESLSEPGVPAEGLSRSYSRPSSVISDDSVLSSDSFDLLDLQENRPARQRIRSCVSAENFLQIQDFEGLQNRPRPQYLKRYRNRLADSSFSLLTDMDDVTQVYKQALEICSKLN

[5] = target: T2, Serine/threonine-protein kinase LATS1 (Homo sapiens) (UniProt O95835); test: Inhibition of LATS1 (unknown origin) at 1 uM by Ambit Kinomescan binding assay relative to control
T2 sequence (whole entry): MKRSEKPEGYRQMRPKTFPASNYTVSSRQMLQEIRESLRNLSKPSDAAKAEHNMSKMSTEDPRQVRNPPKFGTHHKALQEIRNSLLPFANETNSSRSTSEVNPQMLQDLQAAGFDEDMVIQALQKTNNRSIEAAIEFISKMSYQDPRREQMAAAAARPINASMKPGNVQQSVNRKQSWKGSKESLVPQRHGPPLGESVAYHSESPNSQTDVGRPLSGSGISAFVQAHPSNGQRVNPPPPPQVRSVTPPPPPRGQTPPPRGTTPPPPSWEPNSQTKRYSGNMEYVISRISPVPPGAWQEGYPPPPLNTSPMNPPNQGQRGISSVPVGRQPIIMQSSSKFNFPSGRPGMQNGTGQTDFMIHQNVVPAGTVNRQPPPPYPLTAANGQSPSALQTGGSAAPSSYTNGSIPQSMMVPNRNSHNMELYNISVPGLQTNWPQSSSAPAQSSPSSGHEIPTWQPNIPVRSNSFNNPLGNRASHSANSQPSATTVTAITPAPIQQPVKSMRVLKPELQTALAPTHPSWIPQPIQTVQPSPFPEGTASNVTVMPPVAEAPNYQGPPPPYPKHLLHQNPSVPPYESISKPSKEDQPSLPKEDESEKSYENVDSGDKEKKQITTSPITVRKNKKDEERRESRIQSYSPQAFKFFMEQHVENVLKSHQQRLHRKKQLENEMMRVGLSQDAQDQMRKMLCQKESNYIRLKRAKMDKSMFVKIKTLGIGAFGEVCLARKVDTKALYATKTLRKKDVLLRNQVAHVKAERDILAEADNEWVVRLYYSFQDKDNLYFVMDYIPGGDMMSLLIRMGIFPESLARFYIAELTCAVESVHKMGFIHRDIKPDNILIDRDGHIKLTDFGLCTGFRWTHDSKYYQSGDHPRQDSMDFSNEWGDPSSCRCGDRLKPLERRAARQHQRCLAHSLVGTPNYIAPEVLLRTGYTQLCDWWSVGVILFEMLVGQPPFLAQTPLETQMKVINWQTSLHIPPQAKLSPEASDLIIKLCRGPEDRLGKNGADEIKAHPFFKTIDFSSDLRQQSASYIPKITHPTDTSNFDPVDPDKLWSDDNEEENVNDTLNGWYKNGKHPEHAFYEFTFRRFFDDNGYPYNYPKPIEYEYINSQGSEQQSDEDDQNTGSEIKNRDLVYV

[6] = target: Mitogen-activated protein kinase 11 (Homo sapiens) (UniProt Q15759); test: Inhibition of p38 beta (unknown origin) at 1 uM by Ambit Kinomescan binding assay relative to control; values are per cent of control
Mitogen-activated protein kinase 11 (Homo sapiens), sequence (Q15759 whole entry): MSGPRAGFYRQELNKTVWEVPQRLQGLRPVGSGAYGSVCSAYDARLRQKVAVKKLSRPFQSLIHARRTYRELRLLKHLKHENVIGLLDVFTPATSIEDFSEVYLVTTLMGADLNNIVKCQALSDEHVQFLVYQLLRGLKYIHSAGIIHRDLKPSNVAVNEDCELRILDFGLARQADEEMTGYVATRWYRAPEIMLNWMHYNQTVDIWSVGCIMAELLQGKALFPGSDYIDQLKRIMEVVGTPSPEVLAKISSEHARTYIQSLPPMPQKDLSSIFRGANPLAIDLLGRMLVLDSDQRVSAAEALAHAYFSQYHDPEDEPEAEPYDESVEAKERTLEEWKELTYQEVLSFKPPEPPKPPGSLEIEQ

Serine/threonine-protein kinase MARK2 (Homo sapiens), sequence (Q7KZI7 whole entry): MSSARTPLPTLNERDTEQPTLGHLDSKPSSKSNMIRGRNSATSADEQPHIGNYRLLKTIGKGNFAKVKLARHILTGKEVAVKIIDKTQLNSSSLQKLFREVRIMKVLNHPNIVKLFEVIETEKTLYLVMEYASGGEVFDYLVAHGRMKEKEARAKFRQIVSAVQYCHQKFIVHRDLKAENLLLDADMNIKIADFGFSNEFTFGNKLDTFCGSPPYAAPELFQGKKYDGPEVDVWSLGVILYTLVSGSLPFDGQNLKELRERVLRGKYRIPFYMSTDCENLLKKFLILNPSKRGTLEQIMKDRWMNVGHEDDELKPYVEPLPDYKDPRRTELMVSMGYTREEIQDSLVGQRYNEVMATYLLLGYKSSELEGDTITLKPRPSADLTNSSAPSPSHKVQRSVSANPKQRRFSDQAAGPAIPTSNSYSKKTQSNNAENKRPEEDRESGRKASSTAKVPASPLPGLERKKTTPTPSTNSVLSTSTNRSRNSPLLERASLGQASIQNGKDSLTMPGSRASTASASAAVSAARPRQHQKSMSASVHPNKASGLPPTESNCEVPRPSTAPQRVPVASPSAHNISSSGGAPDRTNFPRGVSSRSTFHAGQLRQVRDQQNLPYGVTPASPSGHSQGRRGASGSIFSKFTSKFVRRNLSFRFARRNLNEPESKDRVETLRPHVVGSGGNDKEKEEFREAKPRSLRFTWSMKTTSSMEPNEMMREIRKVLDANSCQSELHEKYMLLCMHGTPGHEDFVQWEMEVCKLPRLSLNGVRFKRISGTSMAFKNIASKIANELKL
Serine/threonine-protein kinase SIK1 (Homo sapiens), sequence (P57059 whole entry): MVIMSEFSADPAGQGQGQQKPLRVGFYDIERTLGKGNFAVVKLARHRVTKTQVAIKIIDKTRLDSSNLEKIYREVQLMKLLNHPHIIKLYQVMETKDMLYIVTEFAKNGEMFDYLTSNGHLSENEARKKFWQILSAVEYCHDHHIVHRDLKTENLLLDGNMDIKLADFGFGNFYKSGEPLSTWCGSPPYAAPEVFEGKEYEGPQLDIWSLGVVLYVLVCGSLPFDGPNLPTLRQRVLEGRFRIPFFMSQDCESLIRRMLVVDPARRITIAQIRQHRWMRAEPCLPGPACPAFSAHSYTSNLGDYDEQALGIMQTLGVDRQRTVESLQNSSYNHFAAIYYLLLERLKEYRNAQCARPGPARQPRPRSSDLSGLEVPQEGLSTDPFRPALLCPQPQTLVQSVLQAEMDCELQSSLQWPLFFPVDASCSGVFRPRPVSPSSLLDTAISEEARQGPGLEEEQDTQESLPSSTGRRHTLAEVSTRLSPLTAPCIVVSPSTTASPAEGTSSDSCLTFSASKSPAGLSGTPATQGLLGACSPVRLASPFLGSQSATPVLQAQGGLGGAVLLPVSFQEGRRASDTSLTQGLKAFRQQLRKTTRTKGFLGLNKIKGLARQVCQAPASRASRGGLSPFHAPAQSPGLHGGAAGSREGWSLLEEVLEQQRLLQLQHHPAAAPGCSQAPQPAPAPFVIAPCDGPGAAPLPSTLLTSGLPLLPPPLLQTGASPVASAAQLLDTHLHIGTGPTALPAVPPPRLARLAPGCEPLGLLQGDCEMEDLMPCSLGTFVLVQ
MAP/microtubule affinity-regulating kinase 3 (Homo sapiens), sequence (P27448 whole entry, looked up): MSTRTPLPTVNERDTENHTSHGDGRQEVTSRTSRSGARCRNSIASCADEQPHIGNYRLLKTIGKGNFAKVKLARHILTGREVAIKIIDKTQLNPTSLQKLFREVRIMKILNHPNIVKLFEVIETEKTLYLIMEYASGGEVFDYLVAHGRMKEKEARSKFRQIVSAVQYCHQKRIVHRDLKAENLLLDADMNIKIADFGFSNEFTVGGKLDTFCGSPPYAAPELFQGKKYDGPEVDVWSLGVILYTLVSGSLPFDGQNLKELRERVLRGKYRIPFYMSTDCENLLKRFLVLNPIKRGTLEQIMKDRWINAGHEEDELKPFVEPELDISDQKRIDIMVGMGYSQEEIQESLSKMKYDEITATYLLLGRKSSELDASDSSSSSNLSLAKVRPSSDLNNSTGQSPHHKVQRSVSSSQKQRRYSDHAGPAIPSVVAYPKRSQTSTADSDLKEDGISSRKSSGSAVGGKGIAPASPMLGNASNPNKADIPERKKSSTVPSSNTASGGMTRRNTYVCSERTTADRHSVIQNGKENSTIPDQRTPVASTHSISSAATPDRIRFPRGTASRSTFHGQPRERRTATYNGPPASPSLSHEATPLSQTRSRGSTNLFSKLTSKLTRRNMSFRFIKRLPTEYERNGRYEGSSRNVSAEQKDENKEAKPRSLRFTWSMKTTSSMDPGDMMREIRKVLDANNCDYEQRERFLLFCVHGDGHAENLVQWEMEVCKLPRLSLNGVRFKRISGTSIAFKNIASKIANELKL

## CNc1cc(Oc2cc(C(=O)Nc3cc(N4CCN(C)CC4)cc(C(F)(F)F)c3)ccc2C)ncn1
[1]
  inhibition: 7.4%

## CCN1CCN(Cc2ccc(NC(=O)c3ccc(C)c(Oc4ccnc5[nH]ccc45)c3)cc2C(F)(F)F)CC1
[2]
  residual activity: 5.3%
[3]
  inhibition: 5%

## CCN1CCN(Cc2ccc(NC(=O)c3ccc(C)c(/C=C/c4cnc5[nH]ccc5c4OC)c3)cc2C(F)(F)F)CC1
[4]
  inhibition: 100%
[5]
  inhibition: 80%
[6]
  percent of control: 0.3%
